Assay results from US20220356186A1, “PERK INHIBITING PYRROLOPYRIMIDINE COMPOUNDS” (HiberCell, Inc., priority 2019, published 2022).
Like-named read-outs stand apart in the source and are kept apart here.

Columns and labels:
[1] = target: T1, EIF2AK3 (PERK) catalytic domain (amino acids 536-1116) (Homo sapiens, UniProt Q9NZJ5); experiment: PERK in vitro activity assay (isolated), TR-FRET kinase assay; format: biochemical; details: isolated PERK enzyme, 1.5 μM ATP; read-out: Biochemical IC50
T1 construct: EIF2AK3 (PERK) catalytic domain (amino acids 536-1116)
T1 sequence (Q9NZJ5 536-1116): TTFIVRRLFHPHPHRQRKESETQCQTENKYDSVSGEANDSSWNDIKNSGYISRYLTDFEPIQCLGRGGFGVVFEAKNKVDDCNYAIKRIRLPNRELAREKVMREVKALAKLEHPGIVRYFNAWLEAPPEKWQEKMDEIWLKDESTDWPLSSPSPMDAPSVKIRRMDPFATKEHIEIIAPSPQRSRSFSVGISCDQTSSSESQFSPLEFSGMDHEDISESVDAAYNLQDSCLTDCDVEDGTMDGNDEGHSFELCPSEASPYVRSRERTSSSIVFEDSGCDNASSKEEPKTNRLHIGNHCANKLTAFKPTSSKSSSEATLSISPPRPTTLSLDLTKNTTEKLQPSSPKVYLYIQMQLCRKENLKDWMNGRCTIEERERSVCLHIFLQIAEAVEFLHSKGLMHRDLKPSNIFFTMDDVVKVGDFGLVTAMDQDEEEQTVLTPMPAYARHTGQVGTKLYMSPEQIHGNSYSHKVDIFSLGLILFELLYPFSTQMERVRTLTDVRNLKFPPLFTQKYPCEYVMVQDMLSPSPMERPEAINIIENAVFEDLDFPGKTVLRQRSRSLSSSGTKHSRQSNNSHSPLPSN
Method in brief: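 TR-FRET read-out: after EDTA stop (10 mM final), Tb-labelled phospho-eIF2a antibody (2 nM) for 90 min; IC50 via 4-parameter nonlinear fit. Reaction: PERK aa 536-1116, GFP-eIF2a 100-200 nM, HEPES pH 7.5 with MgCl2/EGTA/Brij-35, 45 min, room temperature, started by enzyme.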

[2] = system: GFP-eIF2α in HEK293 cells; experiment: PERK cellular assay, TR-FRET in HEK293-EGFP-eIF2a cells after tunicamycin-induced ER stress; format: cell-based; details: HEK293-EGFP-eIF2a cells, tunicamycin 2 hours, read-out: Cellular eIF2α IC50
Method in brief: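 Compounds were added 30 min before a 2 h tunicamycin ([…]) challenge of lentivirally made GFP-eIF2α HEK293 cells, 5000/well; lysate TR-FRET ratio was the read-out.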

Row | SMILES | IC50 [1] | IC50 [2] | IC50 ([2]; Homo sapiens, HEK293, 2 h)
1 | CCc1cc(NC(=O)C(O)c2cccc(F)c2)ccc1-c1cn(C)c2nc(C)nc(N)c12 (stereo not drawn) [Example 69, N-(4-(4-amino-2,7-dimethyl-7H-pyrrolo[2,3-d]pyrimidin-5-yl)-3-ethylphenyl)-2-(3-fluorophenyl)-2-hydroxyacetamide] | 101 to 250 nM | 2000 to 3000 nM | –
2 | Cc1nc(N)c2c(-c3ccc(NC(=O)C(O)c4ccccc4Cl)cc3F)cn(C)c2n1 (stereo not drawn) [Example 70, N-(4-(4-amino-2,7-dimethyl-7H-pyrrolo[2,3-d]pyrimidin-5-yl)-3-fluorophenyl)-2-(2-chlorophenyl)-2-hydroxyacetamide] | 1000 to 2000 nM | – | > 5000 nM
3 | Cc1cccc(C(O)C(=O)Nc2ccc(-c3cn(C)c4nc(C)nc(N)c34)c(F)c2)c1 (stereo not drawn) [Example 73, N-(4-(4-amino-2,7-dimethyl-7H-pyrrolo[2,3-d]pyrimidin-5-yl)-3-fluorophenyl)-2-hydroxy-2-(m-tolyl)acetamide] | 26 to 50 nM | 501 to 1000 nM | –
4 | CCc1cccc(C(O)C(=O)Nc2ccc(-c3cn(C)c4nc(C)nc(N)c34)c(F)c2)c1 (stereo not drawn) [Example 75, N-(4-(4-amino-2,7-dimethyl-7H-pyrrolo[2,3-d]pyrimidin-5-yl)-3-fluorophenyl)-2-(3-ethylphenyl)-2-hydroxyacetamide] | 51 to 100 nM | 1000 to 2000 nM | –
5 | Cc1nc(N)c2c(-c3ccc(NC(=O)C(O)c4ccccc4C(F)(F)F)cc3F)cn(C)c2n1 (stereo not drawn) [Example 77, N-(4-(4-amino-2,7-dimethyl-7H-pyrrolo[2,3-d]pyrimidin-5-yl)-3-fluorophenyl)-2-hydroxy-2-(2-(trifluoromethyl)phenyl)acetamide] | 26 to 50 nM | – | 501 to 1000 nM
6 | Cc1nc(N)c2c(-c3ccc(NC(=O)C(O)c4cccc(F)c4)cc3F)cn(C)c2n1 (stereo not drawn) [Example 79, N-(4-(4-amino-2,7-dimethyl-7H-pyrrolo[2,3-d]pyrimidin-5-yl)-3-fluorophenyl)-2-(3-fluorophenyl)-2-hydroxyacetamide] | 51 to 100 nM | 501 to 1000 nM | –
7 | Cc1nc(N)c2c(-c3ccc(NC(=O)C(O)c4cccc(F)c4)cc3F)cn(C)c2n1 (stereo not drawn) [Example 80, N-(4-(4-amino-2,7-dimethyl-7H-pyrrolo[2,3-d]pyrimidin-5-yl)-3-fluorophenyl)-2-(3-fluorophenyl)-2-hydroxyacetamide] | 1 to 25 nM | 26 to 50 nM | –
8 | Cc1nc(N)c2c(-c3ccc(NC(=O)C(O)c4cccc(Cl)c4)cc3F)cn(C)c2n1 (stereo not drawn) [Example 81, N-(4-(4-amino-2,7-dimethyl-7H-pyrrolo[2,3-d]pyrimidin-5-yl)-3-fluorophenyl)-2-(3-chlorophenyl)-2-hydroxyacetamide] | 51 to 100 nM | 101 to 250 nM | –

Now from value to compound, other results behind:

Row | IC50 [1] | SMILES | IC50 [2] | IC50 ([2]; Homo sapiens, HEK293, 2 h)
9 | 1 to 25 nM | CCc1cc(NC(=O)C(O)c2cccc(F)c2)ccc1-c1cn(C)c2nc(C)nc(N)c12 (stereo not drawn) [Example 68, N-(4-(4-amino-2-2,7-dimethyl-7H-pyrrolo[2,3-d]pyrimidin-5-yl)-3-ethylphenyl)-2-(3-fluorophenyl)-2-hydroxyacetamide] | 26 to 50 nM | –
10 | 1 to 25 nM | Cc1cccc(C(O)C(=O)Nc2ccc(-c3cn(C)c4nc(C)nc(N)c34)c(F)c2)c1 (stereo not drawn) [Example 74, N-(4-(4-amino-2,7-dimethyl-7H-pyrrolo[2,3-d]pyrimidin-5-yl)-3-fluorophenyl)-2-hydroxy-2-(m-tolyl)acetamide] | 1 to 25 nM | –
11 | 1 to 25 nM | CCc1cccc(C(O)C(=O)Nc2ccc(-c3cn(C)c4nc(C)nc(N)c34)c(F)c2)c1 (stereo not drawn) [Example 76, N-(4-(4-amino-2,7-dimethyl-7H-pyrrolo[2,3-d]pyrimidin-5-yl)-3-fluorophenyl)-2-(3-ethylphenyl)-2-hydroxyacetamide] | 1 to 25 nM | –
12 | 1 to 25 nM | Cc1nc(N)c2c(-c3ccc(NC(=O)C(O)c4cccc(C(F)(F)F)c4)cc3F)cn(C)c2n1 (stereo not drawn) [Example 78, N-(4-(4-amino-2,7-dimethyl-7H-pyrrolo[2,3-d]pyrimidin-5-yl)-3-fluorophenyl)-2-hydroxy-2-(3-(trifluoromethyl)phenyl)acetamide] | – | 1 to 25 nM
